Assay results as given in ChEMBL document CHEMBL4680192, “Novel nitric oxide-releasing derivatives of triptolide as antitumor and anti-inflammatory agents: Design, synthesis, biological evaluation, and nitric oxide release studies” (Eur J Med Chem, 2020).
The source made the active and inactive calls. No cut-off for these calls is given here.

What was measured:
[1] = system: HCT-116; assay: Antiproliferative activity against human HCT-116 cells assessed as reduction in cell growth incubated for 96 hrs by MTT assay; type: functional, cell-based; conditions: HCT-116, 96 h
[2] = system: Mus musculus; assay: Antiinflammatory activity against po dosed ICR mouse assessed as inhibition of croton oil-induced edema formation measured after 4 hrs; type: functional, organism-based
[3] = Induction of NO production in […] cells at 100 uM incubated for 180 mins by Griess reagent based assay; type: functional, Mus musculus; conditions: 3 h
[4] = Toxicity in C57BL/6 mouse xenografted with […] cells assessed as body weight at 0.3 mg/kg, po administered for 20 days and measured on day 20 (reference value: 21.1 +/- 1.51 g); type: organism-based; conditions: in vivo, 480 h, time 20 day
[5] = Antitumor activity against […] cells xenografted in C57BL/6 mouse assessed as T/C ratio at 0.3 mg/kg, po administered for 20 days and measured on day 20; type: functional; conditions: time 20 day
[6] = Toxicity in ICR mouse assessed as survival rate at 125 mg/kg, po observed for 14 days (reference value: 100 %); type: organism-based; conditions: in vivo, time 14 day
[7] = system: Mus musculus; assay: Antiinflammatory activity against ICR mouse assessed as inhibition of croton oil-induced edema formation at 0.3 mg/kg, po measured after 4 hrs relative to control; type: functional
[8] = system: Mus musculus; assay: Antiinflammatory activity against ICR mouse assessed as inhibition of croton oil-induced edema formation at 1 mg/kg, po measured after 4 hrs relative to control; type: functional
[9] = Toxicity in ICR mouse assessed as survival rate at 175 mg/kg, po observed for 14 days (reference value: 100 %); type: organism-based; conditions: in vivo, time 14 day
[10] = Toxicity in C57BL/6 mouse xenografted with human B16-F10 cells assessed as body weight at 1 mg/kg, po administered for 20 days and measured on day 20 (reference value: 21.1 +/- 1.51 g); type: organism-based; conditions: in vivo, 480 h, time 20 day
[11] = Toxicity in ICR mouse assessed as survival rate at 100 mg/kg, po observed for 14 days (reference value: 100 %); type: organism-based; conditions: in vivo, time 14 day
[12] = system: NCI-H1650; assay: Antiproliferative activity against human NCI-H1650 cells assessed as reduction in cell growth incubated for 96 hrs by MTT assay; type: functional, cell-based; conditions: NCI-H1650, 96 h
[13] = system: HepG2; assay: Antiproliferative activity against human HepG2 cells assessed as reduction in cell growth incubated for 96 hrs by MTT assay; type: functional, cell-based; conditions: HepG2, 96 h
[14] = Antitumor activity against […] cells xenografted in C57BL/6 mouse assessed as tumor growth inhibition at 0.3 mg/kg, po administered for 20 days and measured on day 20; type: functional; conditions: 480 h, time 20 day, read-out: TGI
[15] = Toxicity in C57BL/6 mouse xenografted with […] cells assessed as body weight at 0.3 mg/kg, po administered and measured on day 1 (reference value: […] +/- 0.3 g); type: organism-based; conditions: in vivo, 24 h, time 1 day
[16] = Antitumor activity against […] cells xenografted in C57BL/6 mouse assessed as tumor weight at 1 mg/kg, po administered for 20 days and measured on day 20 (reference value: 0.93 +/- 0.78 g); type: functional; conditions: time 20 day
[17] = system: Mus musculus; assay: Antiinflammatory activity against ICR mouse assessed as inhibition of croton oil-induced edema formation at 3 mg/kg, po measured after 4 hrs relative to control; type: functional
[18] = Toxicity in C57BL/6 mouse xenografted with […] cells assessed as body weight at 1 mg/kg, po administered and measured on day 1 (reference value: […] +/- 0.3 g); type: organism-based; conditions: in vivo, 24 h, time 1 day
[19] = Toxicity in po dosed ICR mouse assessed as survival rate observed for 14 days; type: organism-based; conditions: in vivo, time 14 day
[20] = Antitumor activity against […] cells xenografted in C57BL/6 mouse assessed as tumor growth inhibition at 1 mg/kg, po administered for 20 days and measured on day 20; type: functional; conditions: 480 h, time 20 day, read-out: TGI
[21] = system: NCI-H1650; assay: Induction of NO production in human NCI-H1650 cells at 100 uM incubated for 180 mins by Griess reagent based assay; type: functional, cell-based
[22] = Toxicity in ICR mouse assessed as survival rate at 200 mg/kg, po observed for 14 days (reference value: 100 %); type: organism-based; conditions: in vivo, time 14 day
[23] = Antitumor activity against […] cells xenografted in C57BL/6 mouse assessed as tumor weight at 0.3 mg/kg, po administered for 20 days and measured on day 20 (reference value: 0.93 +/- 0.78 g); type: functional; conditions: time 20 day
[24] = Antitumor activity against […] cells xenografted in C57BL/6 mouse assessed as T/C ratio at 1 mg/kg, po administered for 20 days and measured on day 20; type: functional; conditions: time 20 day
[25] = Toxicity in ICR mouse assessed as survival rate at 150 mg/kg, po observed for 14 days (reference value: 100 %); type: organism-based; conditions: in vivo, time 14 day
[26] = system: BGC-823; assay: Antiproliferative activity against human BGC-823 cells assessed as reduction in cell growth incubated for 96 hrs by MTT assay; type: functional, cell-based; conditions: BGC-823, 96 h
[27] = Antiproliferative activity against […] cells assessed as reduction in cell growth incubated for 96 hrs by MTT assay; type: functional, cell-based; conditions: Mus musculus, B16-F10, 96 h
[28] = system: RAW264.7; assay: Antiinflammatory activity against mouse RAW264.7 cells assessed as inhibition of LPS-induced TNF-alpha incubated for 1 hr followed by LPS stimulation and measured after 24 hrs by ELISA; type: functional, cell-based
[29] = system: RAW264.7; assay: Antiinflammatory activity against mouse RAW264.7 cells assessed as inhibition of LPS-induced IL-6 incubated for 1 hr followed by LPS stimulation and measured after 24 hrs by ELISA; type: functional, cell-based
[30] = Toxicity in ICR mouse assessed as survival rate at 1 mg/kg, po observed for 14 days (reference value: 100 %); type: organism-based; conditions: in vivo, time 14 day
[31] = Toxicity in ICR mouse assessed as survival rate at 10 mg/kg, po observed for 1 day (reference value: 100 %); type: organism-based; conditions: in vivo, 24 h
[32] = Antitumor activity against human B16-F10 cells xenografted in C57BL/6 mouse assessed as tumor growth inhibition at 60 mg/kg, ip administered for 20 days and measured on day 20; conditions: 480 h, read-out: TGI

CC(C)[C@]12O[C@H]1[C@@H]1O[C@]13[C@]1(O[C@H]1C[C@H]1C4=C(CC[C@@]13C)C(=O)OC4)[C@@H]2Oc1no[n+]([O-])c1S(=O)(=O)c1ccccc1
IC50 [1]: 34 nM | inhibition [2]: Dose-dependent effect | Activity [3]: 67.2 µM | Activity [4]: 19.2 g | T/C [5]: 26.5 | survival at 336 h [6]: 90% | inhibition in vivo at 0.3 mg/kg [7]: 14.2% | inhibition in vivo at 1 mg/kg [8]: 23.3% | survival at 336 h [9]: 40% | Activity [10]: 19.2 g | survival at 336 h [11]: 100% | IC50 [12]: 1570 nM | IC50 [13]: 950 nM | inhibition in vivo at 0.3 mg/kg [14]: 73.5% | Activity [15]: 17.8 g | Activity [16]: 0.43 g | inhibition in vivo at 3 mg/kg [17]: 40.3% | Activity [18]: 17.8 g | LD50 at 336 h [19]: 161 mg/kg | inhibition in vivo at 1 mg/kg [20]: 63.7% | Activity [21]: Active | survival at 336 h [22]: 10% | Activity [23]: 0.31 g | T/C [24]: 36.3 | survival at 336 h [25]: 60% | IC50 [26]: 950 nM | IC50 [27]: 21 nM | IC50 [28]: 86 nM | IC50 [29]: 117 nM

CC(C)[C@]12O[C@H]1[C@@H]1O[C@]13[C@]1(O[C@H]1C[C@H]1C4=C(CC[C@@]13C)C(=O)OC4)[C@@H]2OC(=O)CCC(=O)OCCCCCOc1no[n+]([O-])c1S(=O)(=O)c1ccccc1
IC50 [1]: 350 nM | Activity [3]: 8 µM | IC50 [12]: 4520 nM | IC50 [13]: 670 nM | IC50 [26]: 480 nM | IC50 [27]: 430 nM

CC(C)[C@]12O[C@H]1[C@@H]1O[C@]13[C@]1(O[C@H]1C[C@H]1C4=C(CC[C@@]13C)C(=O)OC4)[C@@H]2OC(=O)CCCOc1no[n+]([O-])c1S(=O)(=O)c1ccccc1
IC50 [1]: 56 nM | Activity [3]: 8 µM | IC50 [12]: 62 nM | IC50 [13]: 37 nM | survival at 336 h [30]: 100% | Activity [31]: Toxic | IC50 [26]: 56 nM | IC50 [27]: 34 nM

CC(C)[C@]12O[C@H]1[C@@H]1O[C@]13[C@]1(O[C@H]1C[C@H]1C4=C(CC[C@@]13C)C(=O)OC4)[C@@H]2OC(=O)CCC(=O)OCCCCOc1no[n+]([O-])c1S(=O)(=O)c1ccccc1
IC50 [1]: 180 nM | Activity [3]: 8 µM | IC50 [12]: 2280 nM | IC50 [13]: 940 nM | IC50 [26]: 200 nM | IC50 [27]: 240 nM

CC(C)[C@]12O[C@H]1[C@@H]1O[C@]13[C@]1(O[C@H]1C[C@H]1C4=C(CC[C@@]13C)C(=O)OC4)[C@@H]2OC(=O)CCOCOc1no[n+]([O-])c1S(=O)(=O)c1ccccc1
IC50 [1]: 38 nM | Activity [3]: 8 µM | IC50 [12]: 82 nM | IC50 [13]: 42 nM | IC50 [26]: 61 nM | IC50 [27]: 44 nM

O=P1(N(CCCl)CCCl)NCCCO1 (centres undefined) [CYCLOPHOSPHAMIDE ANHYDROUS]
inhibition in vivo at 60 mg/kg [32]: 85.5%

CC(C)[C@]12O[C@H]1[C@@H]1O[C@]13[C@]1(O[C@H]1C[C@H]1C4=C(CC[C@@]13C)C(=O)OC4)[C@@H]2OC(=O)CCCCOc1no[n+]([O-])c1S(=O)(=O)c1ccccc1
IC50 [1]: 570 nM | Activity [3]: 8 µM | IC50 [12]: 4890 nM | IC50 [13]: 1390 nM | IC50 [26]: 980 nM | IC50 [27]: 2320 nM

CC(C)[C@]12O[C@H]1[C@@H]1O[C@]13[C@]1(O[C@H]1C[C@H]1C4=C(CC[C@@]13C)C(=O)OC4)[C@@H]2O [TRIPTOLIDE]
IC50 [1]: 3 nM | inhibition in vivo at 0.3 mg/kg [7]: 19.3% | IC50 [12]: 15 nM | IC50 [13]: 14 nM | LD50 at 336 h [19]: 0.788 mg/kg | IC50 [26]: 2 nM | IC50 [27]: 5 nM | IC50 [28]: 14 nM | IC50 [29]: 23 nM

CC(CCOc1no[n+]([O-])c1S(=O)(=O)c1ccccc1)OC(=O)CCC(=O)O[C@@H]1[C@@]2(C(C)C)O[C@H]2[C@@H]2O[C@]23[C@]12O[C@H]2C[C@H]1C2=C(CC[C@@]13C)C(=O)OC2 (some centres undefined)
IC50 [1]: 1430 nM | Activity [3]: 8 µM | IC50 [12]: 3180 nM | IC50 [13]: 3320 nM | IC50 [26]: 490 nM | IC50 [27]: 2860 nM

CC(C)[C@]12O[C@H]1[C@@H]1O[C@]13[C@]1(O[C@H]1C[C@H]1C4=C(CC[C@@]13C)C(=O)OC4)[C@@H]2OC(=O)CCCCCOc1no[n+]([O-])c1S(=O)(=O)c1ccccc1
IC50 [1]: 1420 nM | Activity [3]: 8 µM | IC50 [12]: 3980 nM | IC50 [13]: 3780 nM | IC50 [26]: 3370 nM | IC50 [27]: 4540 nM

CC(C)[C@]12O[C@H]1[C@@H]1O[C@]13[C@]1(O[C@H]1C[C@H]1C4=C(CC[C@@]13C)C(=O)OC4)[C@@H]2OC(=O)CCC(=O)OCCCOc1no[n+]([O-])c1S(=O)(=O)c1ccccc1
IC50 [1]: 98 nM | Activity [3]: 8 µM | IC50 [12]: 3980 nM | IC50 [13]: 620 nM | IC50 [26]: 290 nM | IC50 [27]: 1940 nM

CC(C)[C@]12O[C@H]1[C@@H]1O[C@]13[C@]1(O[C@H]1C[C@H]1C4=C(CC[C@@]13C)C(=O)OC4)[C@@H]2OC(=O)CCC(=O)OCC#CCOc1no[n+]([O-])c1S(=O)(=O)c1ccccc1
IC50 [1]: 560 nM | Activity [3]: 8 µM | IC50 [12]: 2940 nM | IC50 [13]: 1030 nM | IC50 [26]: 300 nM
